The target in test [1] is T1, human neurokinin 1 (NK1) receptor (Homo sapiens, UniProt P25103).
T1 construct: expressed in transfected cells; host or cells: Chinese hamster ovary (CHO) cells, membranes
Put plainly: Neurokinin receptor binding assay, NK1 ([3H]-Substance P). The conditions noted are these: for inhibition at 1 µM: read-out: % Inhibition NK1 (1 μM dose). The protocol: (§1) Chinese Hamster ovary (CHO) cells transfected with the coding regions for the human neurokinin 1 (NK1) of the human neurokinin 2 (NK2) receptors are grown in Dulbecco's minimal essential medium supplemented with 10% fetal calf serum, 0.1 mM non-essential amino acids, 2 mM glutamine, 100 units/ml of penicillin and streptomycin, and 0.8 mg of G418/ml at 37° C. in a humidified atmosphere containing 5% CO2.
(§2) Cells are detached from T-175 flasks with a sterile solution containing 5 mM EDTA in phosphate buffered saline. Cells are harvested by centrifugation and washed in RPMI media at […] for 5 minutes. The pellet is resuspended in Tris-HCl (pH7.4) containing 1 μM phsphoramidon and 4 ug/ml of chymostatin at a cell density of 30×10^6 cells/ml. The suspension is then homogenized in a Brinkman Polytron (setting 5) for 30-45 seconds. The homogenate is centrifuged at 800×g for 5 min at 4° C. to collect unbroken cells and nuclei. The supernatant is centrifuged in a Sorvall RC5C at 19,000 rpm ([…]) for 30 min at 4° C. The pellet is resuspended, an aliquot is removed for a protein determination (BCA) and washed again. The resulting pellet is stored at -80° C.
(§3) To assay receptor binding, 50 μl of [^3 H]-Substance P (9-Sar, 11-Met) (specific activity 41 Ci/mmol) (Dupont-NEN) (0.8 nM for the NK-1 assay) or [^3 H]-Neurokinin A (specific activity 114 Ci/mmole) (Zenca) (1.0 nM for the NK-2 assay) is added to tubes containing buffer (50 mM Tris-HCl (pH 7.4) with 1 mM MnCl2 and 0.2% Bovine Serum Albumin) and either DMSO or test compound. Binding is initiated by the addition of 100 μl of membrane (10-20 μg) containing the human NK-1 or NK-2 receptor in a final volume of 200 μl. After 40 minutes at room temperature, the reaction is stopped by rapid filtration onto Whatman GF/C filters which have been presoaked in 0.3% polyethyleneimine. Filters are washed 2 times with 3 ml of 50 mM Tris-HCl (pH7.4). Filters are added to 6 mls of Ready-Safe liquid scintillation cocktail and quantified by liquid scintillation spectrometry in a LKB 1219 RackBeta counter. Non-specific binding is determined by the addition of either 1 μM of CP-99994 (NK-1) or 1 μM SR-48968 (NK-2) (both synthesized by the chemistry department of Schering-Plough Research Institute). IC50 values are determined from competition binding curves and Ki values are determined according to Cheng and Prusoff using the experimentally determined value of 0.8 nM for the NK-1 receptor and 2.4 nM for the NK-2 receptor.
(§4) % Inhibition is the difference between the percent of maximum specific binding (MSB) and 100%. The percent of MSB is defined by the following equation, wherein "dpm" is disintegrations per minute: [formula]

Test [2] deals with T2, human neurokinin 2 (NK2) receptor (Homo sapiens, UniProt P21452).
T2 construct: expressed in transfected cells; host or cells: Chinese hamster ovary (CHO) cells, membranes
T2 sequence (P21452 1-398): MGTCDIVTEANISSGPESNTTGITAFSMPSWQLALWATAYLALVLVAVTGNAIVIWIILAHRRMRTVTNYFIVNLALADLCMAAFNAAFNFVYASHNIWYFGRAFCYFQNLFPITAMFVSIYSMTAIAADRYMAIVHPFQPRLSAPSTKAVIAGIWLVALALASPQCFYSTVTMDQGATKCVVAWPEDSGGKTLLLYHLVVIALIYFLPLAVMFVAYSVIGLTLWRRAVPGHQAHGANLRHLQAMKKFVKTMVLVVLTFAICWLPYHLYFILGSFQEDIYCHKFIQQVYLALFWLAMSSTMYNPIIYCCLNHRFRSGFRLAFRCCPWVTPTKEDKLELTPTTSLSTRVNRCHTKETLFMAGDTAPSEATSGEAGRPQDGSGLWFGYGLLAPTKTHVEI
As to the kind of experiment: Neurokinin receptor binding assay, NK2 ([3H]-Neurokinin A). The conditions noted are these: for inhibition at 1 µM: read-out: % Inhibition NK2 (1 μM dose). The protocol: as §1, §2, §3, §4

Where [3] appears, read: CHO membranes, human NK-1 receptor, [3H]-Substance P 0.8 nM, Cheng-Prusoff, read-out: Ki (NK1).
[4] abbreviates: CHO membranes, human NK-2 receptor, [3H]-Neurokinin A 1.0 nM, Cheng-Prusoff, read-out: Ki (NK2).

Read-outs that look alike come from different tables or passages of the source.

Broadly, the Ki is a dissociation constant, usually derived from enzyme kinetics or from competition with a known ligand. As usually defined, the inhibition is the drop in the measured response relative to a control, in per cent.

T1 sequence (P25103 whole entry): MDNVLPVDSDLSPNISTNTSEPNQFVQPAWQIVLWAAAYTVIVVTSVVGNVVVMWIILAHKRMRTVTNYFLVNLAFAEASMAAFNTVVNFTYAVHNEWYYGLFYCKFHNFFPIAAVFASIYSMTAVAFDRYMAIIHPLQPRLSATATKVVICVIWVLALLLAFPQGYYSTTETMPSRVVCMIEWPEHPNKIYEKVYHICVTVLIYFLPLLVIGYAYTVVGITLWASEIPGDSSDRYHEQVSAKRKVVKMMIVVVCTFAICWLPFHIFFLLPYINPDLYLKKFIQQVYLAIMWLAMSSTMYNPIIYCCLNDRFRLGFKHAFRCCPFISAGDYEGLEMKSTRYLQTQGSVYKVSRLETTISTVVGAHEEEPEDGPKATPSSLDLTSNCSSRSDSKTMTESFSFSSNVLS

`COc1cc(C(=O)N(C)CC(CCN[C@@H](Cc2c[nH]c3ccccc23)C(=O)O)c2ccc(Cl)c(Cl)c2)cc(OC)c1OC` (stereo partly shown) [Example 7d]: the Ki in test [1] (setting [3]) is 0.233 µM; in test [2] (setting [4]) it was 0.03 µM.
For `COc1cc(C(=O)N(C)CC(CCN(C)CCCc2c[nH]c3ccccc23)c2ccc(Cl)c(Cl)c2)cc(OC)c1OC` (stereo not shown) [Example 7b], the Ki in test [1] (setting [3]) was determined as 0.019 µM; in test [2] (setting [4]) it was 0.217 µM.
As to `Cc1cc(C(=O)N(C)CC(CCN(C)CCc2c[nH]c3ccccc23)c2ccc(Cl)c(Cl)c2)cc(Cl)n1` (stereo not shown) [Example 12c], the inhibition constant (Ki) in test [1] was determined as 0.103 µM; in test [2], 0.039 µM. Moreover, the inhibition at 1 µM in test [1] worked out at 82%; in test [2], 93%.
For `COc1cc(C(=O)N(C)CC(CCN(C)CCc2c[nH]c3ccc(F)cc23)c2ccc(Cl)c(Cl)c2)cc(OC)c1OC` (racemic) [Example 7c], the inhibition at 1 µM in test [2] was 100%.
As to `CN(CCc1c[nH]c2ccccc12)CCC1(c2ccc(Cl)c(Cl)c2)CCN(C(=O)c2cc(C(F)(F)F)cc(C(F)(F)F)c2)C1` (stereo not shown) [Example 14b], the Ki in test [1] came to 0.021 µM; in test [2], 0.143 µM. Further, the inhibition at 1 µM came to 81% in test [1] and 88% in test [2].

Source of the values: patent US5691362A, “Substituted benzene-fused hetero- and carbocyclics as nuerokinin antagonists” (Schering-Plough Corporation, priority 1996, dated 1997).
